Measured values: patent US9833497B2, “Human originated EGF domain proteins and use of the same” (CHENGDU SOURCEBIO LIMITED-LIABILITY COMPANY, priority 2013, dated 2017)

Columns and labels:
Assay type in all cases: cell-based
E. coli BL21 = test: MIC against Gram-negative bacteria: E. coli BL21; settings: for MIC (μg/mL) E. coli BL21 / MIC E. coli BL21: 5×10^5 CFU/mL
Summary of the method: (§1)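 Read-out is absence of bacterial growth, with MIC set at the lowest recombinant protein concentration achieving it. Bacteria, pre-grown in LB to McFarland 0.5 and resuspended, were exposed at 5×10^5 CFU/mL to two-fold diluted human EGF domain proteins in triplicate at 37° C, 175 rpm.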

Aeromonas hydrophila = test: MIC against Gram-negative bacteria: Aeromonas hydrophila; settings: for MIC (μg/mL) A. hydrophila / MIC A. hydrophila: 5×10^5 CFU/mL
Summary of the method: as §1

Enterobacter cloacae = test: MIC against Gram-negative bacteria: Enterobacter cloacae; settings: for MIC (μg/mL) E. cloacae / MIC E. cloacae: 5×10^5 CFU/mL
Summary of the method: as §1

Citrobacter diversus = test: MIC against Gram-negative bacteria: Citrobacter diversus; settings: for MIC (μg/mL) C. diversus / MIC C. diversus: 5×10^5 CFU/mL
Summary of the method: as §1

Pseudomonas aeruginosa = test: MIC against Gram-negative bacteria: Pseudomonas aeruginosa; settings: for MIC (μg/mL) P. aeruginosa / MIC P. aeruginosa: 5×10^5 CFU/mL
Summary of the method: as §1

Klebsiella pneumonia = test: MIC against Gram-negative bacteria: Klebsiella pneumonia; settings: for MIC (μg/mL) K. pneumonia / MIC K. pneumonia: 5×10^5 CFU/mL
Summary of the method: as §1

Proteus mirabilis = test: MIC against Gram-negative bacteria: Proteus mirabilis; settings: for MIC (μg/mL) P. mirabilis / MIC P. mirabilis: 5×10^5 CFU/mL
Summary of the method: as §1

Proteus vulgaris = test: MIC against Gram-negative bacteria: Proteus vulgaris; settings: for MIC (μg/mL) P. vulgaris / MIC P. vulgaris: 5×10^5 CFU/mL
Summary of the method: as §1

E. coli DH5α = test: Antibacterial activity: MIC and growth curve against E. coli DH5α in 96-well plate; settings: minimal inhibitory concentration against E. coli DH5α; 96-well plate, 5×10^5 CFU/mL, 37° C., judged after 8 h
Summary of the method: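 Log-phase DH5α (OD600 about 0.5, 37° C, 185 rpm in LB) was pelleted, resuspended in fresh LB and seeded at 5×10^5 CFU/mL with recombinant protein at 50, 25 and 12.5 μg/mL (two-fold series), in triplicate. Plates were shaken at 175 rpm, 37° C, and OD600 was read every 30 min. MIC was the lowest concentration with no growth.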

Serratia marcescens = test: MIC against Gram-negative bacteria: Serratia marcescens; settings: for MIC (μg/mL) S. marcescens / MIC S. marcescens: 5×10^5 CFU/mL
Summary of the method: as §1

Moraxella catarrhalis = test: MIC against Gram-negative bacteria: Moraxella catarrhalis; settings: for MIC (μg/mL) M. catarrhalis / MIC M. catarrhalis: 5×10^5 CFU/mL
Summary of the method: as §1

[1] = E. coli BL21, 10 h cultivation at 37° C.
[2] = A. hydrophila, 10 h cultivation at 37° C.
[3] = E. cloacae, 10 h cultivation at 37° C.
[4] = C. diversus, 10 h cultivation at 37° C.
[5] = P. aeruginosa, 10 h cultivation at 37° C.
[6] = K. pneumonia, 10 h cultivation at 37° C.
[7] = P. mirabilis, 10 h cultivation at 37° C.
[8] = P. vulgaris, 10 h cultivation at 37° C.
[9] = S. marcescens, 10 h cultivation at 37° C.
[10] = M. catarrhalis, 10 h cultivation at 37° C.
[11] = 10 h cultivation at 37° C., two-fold serial dilution

Substance | MIC (E. coli DH5α) [µg/mL] | MIC (μg/mL) E. coli BL21 (E. coli BL21; [1]) [µg/mL] | MIC (μg/mL) A. hydrophila (Aeromonas hydrophila; [2]) [µg/mL] | MIC (μg/mL) E. cloacae (Enterobacter cloacae; [3]) [µg/mL] | MIC (μg/mL) C. diversus (Citrobacter diversus; [4]) [µg/mL] | MIC (μg/mL) P. aeruginosa (Pseudomonas aeruginosa; [5]) [µg/mL] | MIC (μg/mL) K. pneumonia (Klebsiella pneumonia; [6]) [µg/mL] | MIC (μg/mL) P. mirabilis (Proteus mirabilis; [7]) [µg/mL] | MIC (μg/mL) P. vulgaris (Proteus vulgaris; [8]) [µg/mL] | MIC (μg/mL) S. marcescens (Serratia marcescens; [9]) [µg/mL] | MIC (μg/mL) M. catarrhalis (Moraxella catarrhalis; [10]) [µg/mL] | also measured
PRT1013 (LEDPCPPSFCSKRGRCHIQASGRPQCSCMPGWTGEQCQ; listed as Homo sapiens) | 12.5 | – | – | – | – | – | – | – | – | – | – | MIC (E. coli BL21; [1]): 12.5 µg/mL; MIC (Aeromonas hydrophila; [2]): 12.5 µg/mL; MIC (Enterobacter cloacae; [3]): 12.5 µg/mL; MIC (Citrobacter diversus; [4]): 12.5 µg/mL; MIC (Pseudomonas aeruginosa; [5]): 12.5 µg/mL; MIC (Klebsiella pneumonia; [6]): 25 µg/mL; MIC (Proteus mirabilis; [7]): 12.5 µg/mL; MIC (Proteus vulgaris; [8]): 25 µg/mL; MIC (Serratia marcescens; [9]): 50 µg/mL; MIC (Moraxella catarrhalis; [10]): 25 µg/mL
PRT844 (CRCNRHSECAGVGARDHCLLCRNHTKGSHCEQCLPLFVGSAVGGGTCRP; listed as Homo sapiens) | 12.5 | 25 | 12.5 | 50 | 50 | 50 | 12.5 | 12.5 | 12.5 | 25 | 25 | –
PRT214 (DDNECGNLTQSCGENANCTNTEGSYYCMCVPGFRSSSNQDRFITNDGTVCI; listed as Homo sapiens) | 12.5 | 25 | 25 | 12.5 | 12.5 | 12.5 | 25 | 12.5 | 25 | 12.5 | 25 | –
PRT632 (CKCHPLGSQEDQCHPKTGQCTCRPGVTGQACDRCQLGFFGFSIKGCRA; listed as Homo sapiens) | 12.5 | – | – | – | – | – | – | – | – | – | – | MIC E. coli BL21 (E. coli BL21; 96-well plate, 37° C., 10 h): 25 µg/mL; MIC A. hydrophila (Aeromonas hydrophila; 96-well plate, 37° C., 10 h): 25 µg/mL; MIC E. cloacae (Enterobacter cloacae; 96-well plate, 37° C., 10 h): 12.5 µg/mL; MIC C. diversus (Citrobacter diversus; 96-well plate, 37° C., 10 h): 50 µg/mL; MIC P. aeruginosa (Pseudomonas aeruginosa; 96-well plate, 37° C., 10 h): 12.5 µg/mL; MIC K. pneumonia (Klebsiella pneumonia; 96-well plate, 37° C., 10 h): 25 µg/mL; MIC P. mirabilis (Proteus mirabilis; 96-well plate, 37° C., 10 h): 12.5 µg/mL; MIC P. vulgaris (Proteus vulgaris; 96-well plate, 37° C., 10 h): 25 µg/mL; MIC S. marcescens (Serratia marcescens; 96-well plate, 37° C., 10 h): 50 µg/mL; MIC M. catarrhalis (Moraxella catarrhalis; 96-well plate, 37° C., 10 h): 25 µg/mL
PRT843 (CQCNGHGDPRRGHCDNLSGLCFCQDHTEGAHCQLCSPGYYGDPRAGGSCFR; listed as Homo sapiens) | 25 | 12.5 | 50 | 25 | 25 | 12.5 | 12.5 | 25 | 25 | 50 | 12.5 | –
PRT1162 (DIDDCILNACEHNSTCKDLHLSYQCVCLSDWEGNFCE; listed as Homo sapiens) | 12.5 | – | – | – | – | – | – | – | – | – | – | MIC E. coli BL21 (E. coli BL21; [11]): 50 µg/mL; MIC A. hydrophila (Aeromonas hydrophila; [11]): 50 µg/mL; MIC E. cloacae (Enterobacter cloacae; [11]): 12.5 µg/mL; MIC C. diversus (Citrobacter diversus; [11]): 25 µg/mL; MIC P. aeruginosa (Pseudomonas aeruginosa; [11]): 12.5 µg/mL; MIC K. pneumonia (Klebsiella pneumonia; [11]): 50 µg/mL; MIC P. mirabilis (Proteus mirabilis; [11]): 25 µg/mL; MIC P. vulgaris (Proteus vulgaris; [11]): 50 µg/mL; MIC S. marcescens (Serratia marcescens; [11]): 25 µg/mL; MIC M. catarrhalis (Moraxella catarrhalis; [11]): 12.5 µg/mL
